A melting point compilation (Tetko et al.; mined from patent text by program, amines drawn as free bases though some values may be those of a salt)

melting point | Structure (SMILES)
183 to 185 °C | N=C(Nc1ccc2[nH]cc(-c3ccncc3)c2c1)c1cccs1
303 to 305 °C | CCOC(=O)C1=C(C)Nc2nc[nH]c(=O)c2C1c1ccccc1 (configuration not stated)
251 °C | Cc1[nH]n(C2CCOC2)c2nc(-c3ccncc3)nc(=O)c1-2 (configuration not stated)
197 to 199 °C | CCOC(=O)N1C(c2ccccc2)OC(=O)C1c1ccccc1 (configuration not stated)
80 to 81 °C | CC(C)c1nc(C(O)(C(F)(F)F)C(F)(F)F)[nH]c1-c1ccccc1
117 to 118 °C | C=Cc1nnc2ccc3ccccc3n12
160 to 161 °C | COc1ccc(-c2ncn(-c3cc(OC)c(OC)c(OC)c3)c2-c2cc(OC)c(OC)c(OC)c2)cc1OC
89.5 to 90.5 °C | Cc1cc(C(O)(C(F)(F)F)C(F)(F)F)ccc1O
207 to 215 °C | COc1cc(OCc2ccncc2)ccc1/C=C/c1cc(/C=C/c2cccc3[nH]ccc23)n[nH]1
178 to 179 °C | CC(C)(Cc1ccccc1)C(NC(=O)c1cccc(Cl)c1)Nc1c(Nc2cccnc2)c(=O)c1=O (single isomer, unassigned; (-))
84 to 85 °C | CCCCC(=O)c1c(O)oc(=O)c(C(=O)CCCC)c1O
147 °C | CC(C)c1cc(C(=O)O)cc(C(C)C)c1O
130 to 132 °C | COC(=O)C1CCCN(COS(C)(=O)=O)c2c1cc(OCc1ccccc1)c1ccccc21 (configuration not stated)
206 to 208 °C | CCC(Cn1cncn1)(C(=O)O)c1ccc(Cl)cc1Cl (configuration not stated)
330 to 339 °C | N#Cc1ccc(-c2ccc(Cl)cc2)[nH]c1=O
198 to 199 °C | COc1cc(-n2cnc3cc(-c4ccc(Cl)cc4)sc3c2=O)ccc1OCC1(O)CC(F)(F)C1
191 to 193 °C | COc1cc(O)c(C=O)cc1C12CC3CC(CC(C3)C1)C2
135 to 137 °C | CC(C)(C)OC(=O)N1CCN(c2ccc(S(=O)(=O)c3ccccc3)c(N)c2)CC1
227 to 228 °C | Cc1cc(C(=O)N(C)C)ccc1-c1ccc(C(=O)Nc2ccc(Br)c(N3CCN(C)CC3)c2)cc1
186 °C | CC(=O)N1CCOc2ccc(C3=NNC(=O)CC3C)cc21 (configuration not stated)
88 to 90 °C | COC(=O)C(Cc1ccccc1)Oc1ccc2cc(-c3cnc(Cc4ccccc4)o3)ccc2c1 (configuration not stated)
269 to 270 °C | Cc1ccc(N(C)S(=O)(=O)c2cccs2)c2[nH]c(C3=NCC(CC(=O)O)S3)cc12 (configuration not stated)
174 to 175 °C | COc1ccc(-n2c(=O)cc(OC(C)=O)c3ccccc32)cc1
172 °C | Oc1c(CN2CCOCC2)ncc2c1COC2c1ccccc1 (configuration not stated)

melting point | Structure (SMILES)
90 to 91 °C | CCOc1ccc(C2=NN(C(CC)CCCCC(=O)O)C(=O)C3CCCCC23)cc1OCC (configuration not stated)
129 to 131 °C | CC(C(=O)O)c1ccc(-c2ccc(F)cc2)c(Br)c1 (configuration not stated)
160 to 161 °C | Nc1ccc(-c2nc3ccccc3s2)cc1Br
163 to 164 °C | CN(Cc1ccc(Cl)c(Cl)c1)C(=O)C1=C(O)C(=O)N(C2CC2)C1
75 to 76 °C | COC(=O)c1cc(C)nc(Nc2ccc(C(C)C)cc2Br)n1
238 to 241 °C | CC(=O)c1cc(C(=O)O)c(=O)[nH]c1C
78 to 79 °C | CC(C)(C)OC(=O)NC1CCCCC1NC(=O)c1ccccn1 (configuration not stated)
267 °C | O=C(O)c1ccc(C(=O)Nc2nnc(-c3cc(Cl)cc(Cl)c3O)s2)nc1
216 °C | COc1ccc(C(=O)Nc2ccccc2)cc1NS(=O)(=O)Cc1ccccc1
146 to 148 °C | Cn1ccnc1C1(CCCCc2ccc(NC(=O)c3ccccc3)cc2)c2ccccc2-c2ccccc21
84 to 86 °C | N#CSCC(I)=C(I)CBr
208 to 209 °C | COc1ccccc1Cc1c(N)nc(SCCCN2CCN(C(C)=O)CC2)nc1N
177 to 178 °C | O=C1CCCC(=O)N1c1cc(I)cc(I)c1
147 to 149 °C | O=C(O)C(=O)N1CCC(Oc2ccc(F)cc2)CC1
139 to 140 °C | CCOc1ccc(C(=O)CCC(=O)Nc2sc(-c3ccccc3)nc2-c2ccccc2)cc1OCC
> 300 °C | CC(=O)Nc1nc2c(s1)-c1nc(-c3ccccc3)ncc1C2
57 to 59 °C | CC(C(=O)CCl)c1ccc(-c2ccccc2)c(F)c1 (configuration not stated)
237 to 240 °C | Cc1nn(-c2c(Cl)cc(C(F)(F)F)cc2Cl)c(C)c1C=NC(C#N)=C(N)C#N
235 to 238 °C | CCOC(=O)C=Cc1c[nH]c2cnc(-n3cncn3)cc12
110 to 111 °C | CCOC(=O)C=Cc1ccc(C(=O)Cc2ccccc2)cc1
95 °C | CC(O)(C1=CCN(CCCC(=O)c2ccc(F)cc2)CC1)c1ccc(F)cc1 (configuration not stated)
90 to 95 °C | O=C(Cn1nccc1-c1ccc(Oc2ccc(F)cc2)cc1)N1CCCC1
106 to 109 °C | CNc1cc(Oc2ccc(NC(=O)Nc3ccc(-c4cccc(C)n4)c(C(F)(F)F)c3)cc2)ncn1
154 to 156 °C | CC12CCC3c4ccc(O)cc4CCC3(C=C(F)F)C1CCC2O (configuration not stated)

melting point | Structure (SMILES)
103 to 105 °C | COCCn1nnc2cc3c(cc2c1=O)OCN(C1CC1)C3=O
145 to 146 °C | CC(C)COC(=O)N[C@@H](CC(C)C)C(=O)N[C@@H](C(C)C)[C@@H](O)c1c(-c2ccccc2)c1=O
201 to 203 °C | COc1ccc(-c2ccnc3c(C(=O)c4cccs4)cnn23)cc1NC(=O)c1ccccc1
94 to 96 °C | CC(C)c1nc(CCOC2=CCCCCCCCC2)n(C)c1Sc1cc(Cl)cc(Cl)c1
228 to 230 °C | CC1Nc2cc(-c3ccc(Cl)cc3)ccc2NC1=O (configuration not stated)
232 to 234 °C | Cc1nc(N)nc(N)c1-c1cc(I)ccc1Cl
234 °C | CCOc1cc(-c2cc(C(F)(F)F)n3ncc(C(=O)Nc4cc(S(=O)(=O)NC(C)(C)CO)sc4Cl)c3n2)ccc1C(F)(F)F
235 to 237 °C | COc1cc(S(C)(=O)=O)ccc1-c1nc2cc3c(cc2[nH]1)NC(=O)C3(C)C
147 to 149 °C | O=C(O)[C@@H](CC(=O)N1CCOCC1)NS(=O)(=O)c1ccc(Oc2ccccc2)cc1
165 to 167 °C | O=C(c1ccc(Cl)nc1)N1Cc2cccn2Cc2ccccc21
95 to 95.5 °C | COc1cc(C)c([N+](=O)[O-])cc1F
60 to 61 °C | CCOC(=O)C1=C[C@H](c2ccc(C)cc2)[C@H](CO[Si](C)(C)C(C)(C)C)C(=O)O1
233 °C | COc1cc(Cc2cnc(N)nc2N)cc(-c2ccc(O)cc2)c1OC
98 to 99 °C | CC1(c2cc(-c3cccc(CC4SC(N5CCOCC5)=NC4=O)c3)ccc2O)CCCCC1 (configuration not stated)
200 to 203 °C | CN1c2ccncc2NC(c2ccccc2)c2cccn21 (configuration not stated)
118 to 119 °C | O=C(O)CCc1cn(Cc2ccc(OCc3csc(-c4cccnc4)n3)cc2)cc1-c1ccccc1
100 to 102 °C | CN(C(=O)N1CCN(C[C@@]2(C)Cn3cc([N+](=O)[O-])nc3O2)CC1)c1ccc(C(F)(F)F)cc1
231 to 232 °C | CC(C)Oc1ccc([N+](=O)[O-])cc1NC(=O)Nc1cccnc1
117 to 119 °C | CCC(CC)Nc1cc(C)nc(Oc2c(C)cc(C)cc2C)c1CN
74 to 75 °C | CCCCCCCCCCOc1ccc2cc(C#CC(C)OC(=O)CC)ccc2c1 (configuration not stated)
235 °C | Cn1c(=O)cc(-c2cccc(Cl)c2)c2cc(C(=O)c3cccc(I)c3)ccc21
156 °C | CC(C)(C)c1ccc(-c2cc(=O)cc(N3CCOCC3)o2)cc1
107 to 108 °C | CN1CCC(c2c(O)cc(O)c3c(=O)cc(-c4ccccc4Cl)oc23)C1CC#N (configuration not stated)
260 °C | CNc1nc(Nc2ccc(CNC(=O)OC(C)(C)C)cc2)ncc1[N+](=O)[O-]

melting point | Structure (SMILES)
107 to 109 °C | CC(C)n1nc(-c2ccc(=O)[nH]c2-c2ccccc2)ccc1=O
146 °C | CCOC(OCC)N1C(=O)C2(CCCCC2)c2cc(-c3cc(F)cc(C#N)c3)ccc21
150 to 151 °C | O=C(CCCc1ccccc1)N[C@H](Cc1ccc(C(F)(F)F)cc1)[C@@H](O)c1ccc(F)cc1 (racemic)
183 to 185 °C | CCN(C(C)=O)c1ccc(O)cc1
295 °C | O=C1NC(c2ccccc2)=C2C(=O)OC(c3ccc(Br)cc3)=C12
159 to 161 °C | Cn1nc(-c2ccc(S(=O)(=O)N3CCn4c(c(C(N)=O)c(Cl)c4-c4ccccc4)C3)s2)cc1C(F)(F)F
> 300 °C | CCN(CC)C(=O)N1CCc2c([N+](=O)[O-])cc3[nH]c(=O)c(=O)[nH]c3c2C1
59 to 61 °C | CCCCCCCCCCCCCCCCCCCCCC(=O)Oc1cc(C(C)(C)C)c(O)c(C(C)(C)C)c1
140 to 145 °C | CC1(C)Cc2cccc(Oc3c(Cl)cc(N)cc3Cl)c2O1
228 to 231 °C | COCCc1nc2c(N)nc3cc(Br)ccc3c2n1CCCN1CCCC1=O
> 300 °C | O=c1c(O)nc2cccnc2n1-c1ccc(Cl)cc1
117 to 118 °C | COc1ccc(C=Cc2c(Cl)cncc2Cl)c2c1OCC2C (configuration not stated)
168 °C | CC(=O)Nc1ccc(NCCSC#N)c([N+](=O)[O-])c1
159 to 160 °C | CCOC(=O)c1cccc(-n2nc(C(=O)OCC)c3csc(N)c3c2=O)c1
325 °C | CN1C(C)(C)CC(NC(=O)c2ccc(-c3cc4cc(Cl)c(Cl)cc4[nH]3)cc2)CC1(C)C
152 to 153 °C | COc1cc2ncnc(Oc3cccc(Cl)c3)c2cc1OC
135 to 137 °C | O=C1CC(CCc2ccccc2)Nc2ccccc2N1Cc1ccccc1 (configuration not stated)
98 °C | COc1cc(CBr)ccc1[N+](=O)[O-]
160 to 162 °C | O=C(NC(=O)c1c(Cl)cccc1Cl)Nc1ccc(Sc2ccc(Cl)cc2)nc1
94 to 97 °C | COCCNc1nc(Cc2ccc(OC)c(OC)c2)nc2sc(C#N)c(C)c12
212 to 214 °C | COc1cc2c(cc1OC(C)=O)C1Cc3ccc(OC)c(OC(C)=O)c3CN1CC2 (configuration not stated)
95 to 97 °C | O=[N+]([O-])c1cc(C(F)(F)F)cc2nc(C(F)(F)F)[nH]c12

Structure (SMILES) | melting point
COc1cc(C2c3cc4c(cc3C(NC3=C(C)C(=O)N(C)C3=O)C3COC(=O)C23)OCO4)cc(OC)c1O (configuration not stated) | 172 to 176 °C
COc1cc(C2C3=C(COC3=O)Nc3ccc4nc(C)sc4c32)ccc1O (configuration not stated) | 293 to 295 °C
N#Cc1ccc([N+](=O)[O-])cc1[N+](=O)[O-] | 88 to 92 °C
